These results are taken from patent US20230146395A1, “Substituted Pyrimidines and Uses Thereof” (Verge Analytics, Inc., priority 2020, published 2023).

pIC50: −log10 of the molar value. Counter-ions that a name gives are not always drawn.

One may read the pIC50 as the negative decadic logarithm of the IC50, by convention in mol/L.

The target of the assay is T1, Full length human recombinant PIKFYVE (Homo sapiens, UniProt Q9Y2I7).
T1 construct: Full length human recombinant PIKFYVE; purchased Carna Biosciences (Kobe, Japan); host or cells: baculovirus expression system
T1 sequence (Q9Y2I7 whole entry): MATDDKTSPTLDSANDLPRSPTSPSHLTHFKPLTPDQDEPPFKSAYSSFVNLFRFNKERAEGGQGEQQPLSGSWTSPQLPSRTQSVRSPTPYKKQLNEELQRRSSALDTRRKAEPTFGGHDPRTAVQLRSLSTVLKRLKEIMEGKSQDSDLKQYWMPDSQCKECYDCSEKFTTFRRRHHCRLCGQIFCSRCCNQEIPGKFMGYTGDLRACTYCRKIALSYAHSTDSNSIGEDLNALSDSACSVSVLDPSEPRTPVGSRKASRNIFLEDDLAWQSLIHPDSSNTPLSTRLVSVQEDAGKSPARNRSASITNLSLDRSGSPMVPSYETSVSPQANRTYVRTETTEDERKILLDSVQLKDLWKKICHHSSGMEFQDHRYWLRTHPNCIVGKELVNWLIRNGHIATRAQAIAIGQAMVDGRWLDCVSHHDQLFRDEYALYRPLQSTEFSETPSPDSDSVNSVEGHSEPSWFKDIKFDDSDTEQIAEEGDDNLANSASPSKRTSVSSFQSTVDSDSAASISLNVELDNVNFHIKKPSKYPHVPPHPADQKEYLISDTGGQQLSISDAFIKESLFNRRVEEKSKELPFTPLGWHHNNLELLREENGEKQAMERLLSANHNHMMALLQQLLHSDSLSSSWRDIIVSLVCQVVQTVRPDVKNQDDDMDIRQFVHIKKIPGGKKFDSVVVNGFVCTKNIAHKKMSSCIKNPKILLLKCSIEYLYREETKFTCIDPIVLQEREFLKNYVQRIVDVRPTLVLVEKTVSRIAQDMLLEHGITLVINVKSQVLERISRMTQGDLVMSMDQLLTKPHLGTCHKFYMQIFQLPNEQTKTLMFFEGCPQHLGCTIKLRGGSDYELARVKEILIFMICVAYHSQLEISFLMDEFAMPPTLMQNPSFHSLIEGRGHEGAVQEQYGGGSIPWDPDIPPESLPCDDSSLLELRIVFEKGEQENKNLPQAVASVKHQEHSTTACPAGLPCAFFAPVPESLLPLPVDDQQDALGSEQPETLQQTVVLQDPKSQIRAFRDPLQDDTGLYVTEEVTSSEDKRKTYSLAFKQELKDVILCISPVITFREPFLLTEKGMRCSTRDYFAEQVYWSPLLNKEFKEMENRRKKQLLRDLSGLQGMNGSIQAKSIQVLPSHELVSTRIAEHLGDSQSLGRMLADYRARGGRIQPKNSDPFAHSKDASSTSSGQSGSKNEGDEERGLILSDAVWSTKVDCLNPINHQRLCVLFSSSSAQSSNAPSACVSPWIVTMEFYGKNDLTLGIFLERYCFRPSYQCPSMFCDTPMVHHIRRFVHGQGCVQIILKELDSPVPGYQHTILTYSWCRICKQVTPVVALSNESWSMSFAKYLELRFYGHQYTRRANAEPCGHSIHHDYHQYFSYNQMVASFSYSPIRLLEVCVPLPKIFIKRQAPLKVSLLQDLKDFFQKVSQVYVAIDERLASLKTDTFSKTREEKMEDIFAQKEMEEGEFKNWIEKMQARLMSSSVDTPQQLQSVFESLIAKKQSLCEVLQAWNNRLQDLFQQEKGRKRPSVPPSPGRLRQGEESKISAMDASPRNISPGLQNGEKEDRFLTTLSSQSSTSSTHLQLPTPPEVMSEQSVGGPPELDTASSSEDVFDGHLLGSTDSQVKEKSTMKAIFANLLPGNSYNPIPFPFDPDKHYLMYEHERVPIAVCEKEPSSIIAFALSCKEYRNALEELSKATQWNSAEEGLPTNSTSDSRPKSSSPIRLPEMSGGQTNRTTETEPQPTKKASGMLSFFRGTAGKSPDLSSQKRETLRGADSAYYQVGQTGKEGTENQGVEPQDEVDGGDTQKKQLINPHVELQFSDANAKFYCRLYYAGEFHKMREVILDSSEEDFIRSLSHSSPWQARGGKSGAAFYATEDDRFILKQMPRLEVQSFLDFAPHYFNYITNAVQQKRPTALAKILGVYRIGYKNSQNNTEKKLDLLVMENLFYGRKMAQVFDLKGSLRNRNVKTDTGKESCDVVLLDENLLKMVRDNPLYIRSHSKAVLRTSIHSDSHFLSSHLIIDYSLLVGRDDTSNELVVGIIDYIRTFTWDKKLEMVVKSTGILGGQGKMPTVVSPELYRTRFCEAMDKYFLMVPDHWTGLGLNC
Nature of the assay: Inhibition of PIKfyve (microfluidic electrophoresis kinase assay, PI3P/PS substrate). To be noted: 12 concentrations. The class given is biochemical. The method, boiled down:
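Percent inhibition, from 12 concentrations, was derived from the product/(substrate+product) peak ratio separated by microfluidic electrophoresis, normalized to DMSO-only and enzyme-free controls. Reactions ran 3 h at room temperature: 2 nM N-terminal GST-PIKFYVE, 1 μM fluorescent PI3P in PS vesicles, […], HEPES pH 7.5, MgCl2/MnCl2.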
`c1ccc(-c2cc(Nc3nc(N4CCOCC4)c4occc4n3)n[nH]2)cc1` [Compound 142, 4-morpholino-N-(5-phenyl-1H-pyrazol-3-yl)furo[3,2-d]pyrimidin-2-amine]: the pIC50 is 6.84.

In the case of `Cc1cc(-c2cc3nc(-n4ccc(-c5ccccc5)n4)nc(N4CCOCC4)c3o2)on1` [Compound 206, 6-(3-methylisoxazol-5-yl)-4-morpholino-2-(3-phenylpyrazol-1-yl)furo[3,2-d]pyrimidine], the negative-log IC50 (pIC50) is 8.15. In the case of `CN(C(=O)c1cc2nc(Nc3cc(-c4ccccc4)[nH]n3)nc(N3CCOCC3)c2o1)C1CC1` [Compound 60, N-cyclopropyl-N-methyl-4-morpholino-2-[(5-phenyl-1H-pyrazol-3-yl)amino]furo[3,2-d]pyrimidine-6-carboxamide, hydrogen chloride], the pIC50 is 7.15. The figure for `Cc1cccc(-c2cc(Nc3nc(N4CCOCC4)c4oc(-c5cccnc5)cc4n3)[nH]n2)c1` [Compound 30, 4-morpholino-N-[5-(m-tolyl)-1H-pyrazol-3-yl]-6-(3-pyridyl)furo[3,2-d]pyrimidin-2-amine, hydrogen chloride] is 9.30; for `CN(CC1CC1)C(=O)c1cc2nc(-n3cc(-c4ccccc4)cn3)nc(N3CCOCC3)c2o1` [Compound 66, N-(cyclopropylmethyl)-N-methyl-4-morpholino-2-(4-phenyl-1H-pyrazol-1-yl)furo[3,2-d]pyrimidine-6-carboxamide] it is 6.21; for `COc1cccc(-c2cc(Nc3nc(N4CCOCC4)c4oc(-c5ccncc5)cc4n3)[nH]n2)c1` [Compound 24, N-[5-(3-methoxypheny1)-1H-pyrazol-3-yl]-4-morpholino-6-(4-pyridyl)furo[3,2-d]pyrimidin-2-amine, hydrogen chloride] it is 7.22. `c1csc(-c2cc(Nc3nc(N4CCOCC4)c4oc(-c5ccncc5)cc4n3)[nH]n2)c1` [Compound 75, 4-morpholino-6-(pyridin-4-yl)-N-(5-(thiophen-2-yl)-1H-pyrazol-3-yl)furo[3,2-d]pyrimidin-2-amine, hydrogen chloride]: the pIC50 was 8.85. In the case of `c1cc(-c2cc3nc(Nc4cc(C5CCCC5)n[nH]4)nc(N4CCOCC4)c3o2)ccn1` [Compound 74, N-(5-cyclopentyl-1H-pyrazol-3-yl)-4-morpholino-6-(pyridin-4-yl)furo[3,2-d]pyrimidin-2-amine, hydrogen chloride], the pIC50 is 6.65.

In the case of `O=C(O)c1cc2nc(Nc3cc(-c4ccccc4)[nH]n3)nc(N3CCOCC3)c2o1` [Compound 141, 4-morpholino-2-((5-phenyl-1H-pyrazol-3-yl)amino)furo[3,2-d]pyrimidine-6-carboxylic acid], the pIC50 is 6.60. The figure for `c1ccc(-c2ccn(-c3nc(N4CCOCC4)c4oc(-c5cn[nH]c5)cc4n3)n2)cc1` [Compound 209, 4-morpholino-2-(3-phenylpyrazol-1-yl)-6-(1H-pyrazol-4-yl)furo[3,2-d]pyrimidine] is 8.01.

Turning to `COCCNC(=O)c1cc2nc(Nc3cc(-c4ccccc4)[nH]n3)nc(N3CCOCC3)c2o1` [Compound 140, N-(2-methoxyethyl)-4-morpholino-2-((5-phenyl-1H-pyrazol-3-yl)amino)furo[3,2-d]pyrimidine-6-carboxamide], the pIC50 was 7.37. Then `CCNC(=O)c1cc2nc(-n3cc(-c4ccccc4)cn3)nc(N3CCOCC3)c2o1` [Compound 154, N-ethyl-4-morpholino-2-(4-phenylpyrazol-1-yl)furo[3,2-d]pyrimidine-6-carboxamide], with 7.11; and `CNC(=O)c1cc2nc(-n3ccc(-c4cccc(C)c4)n3)nc(N3CCOCC3)c2o1` [Compound 92, N-methyl-4-morpholino-2-(3-(m-tolyl)-1H-pyrazol-1-yl)furo[3,2-d]pyrimidine-6-carboxamide], with 7.04; and `COc1cccc(-c2ccn(-c3nc(N4CCOCC4)c4oc(-c5ccccn5)cc4n3)n2)c1` [Compound 199, 2-[3-(3-methoxyphenyl)pyrazol-1-yl]-4-morpholino-6-(2-pyridyl)furo[3,2-d]pyrimidine], with 7.43.

`O=C(c1cc2nc(Nc3cc(-c4ccccc4)n[nH]3)nc(N3CCOCC3)c2o1)N1CCCCC1` [Compound 55, (4-morpholino-2-((3-phenyl-1H-pyrazol-5-yl)amino)furo[3,2-d]pyrimidin-6-yl)(piperidin-1-yl)methanone hydrochloride]: the pIC50 was 7.29. The figure for `c1cc(-c2cc3nc(Nc4cc(CC5CCC5)n[nH]4)nc(N4CCOCC4)c3o2)ccn1` [Compound 71] is 7.10.

As for `Clc1cccc(-c2ccn(-c3nc(N4CCOCC4)c4oc(-c5ccccn5)cc4n3)n2)c1` [Compound 185, 2-[3-(3-chlorophenyl)pyrazol-1-yl]-4-morpholino-6-(2-pyridyl)furo[3,2-d]pyrimidine], the pIC50 was 8.00.

In the case of `Cc1cccc(-c2ccn(-c3nc(N4CCOCC4)c4oc(-c5ccn(C)n5)cc4n3)n2)c1` [Compound 189, 6-(1-methylpyrazol-3-yl)-4-morpholino-2-[3-(m-tolyl)pyrazol-1-yl]furo[3,2-d]pyrimidine], the pIC50 is 9.10. Take `CON(C)C(=O)c1cc2nc(Nc3cc(-c4ccccc4)[nH]n3)nc(N3CCOCC3)c2o1` [Compound 139, N-methoxy-N-methyl-4-morpholino-2-((5-phenyl-1H-pyrazol-3-yl)amino)furo[3,2-d]pyrimidine-6-carboxamide]: the negative logarithm of the IC50 (pIC50) was 7.66. Turning to `C=CC(=O)NCCn1nc(-c2cc3nc(-n4cc(-c5cccc(C)c5)cn4)nc(N4CCOCC4)c3o2)cc1C` [Compound 196, N-[2-[5-methyl-3-[4-morpholino-2-[4-(m-tolyl)pyrazol-1-yl]furo[3,2-d]pyrimidin-6-yl]pyrazol-1-yl]ethyl]prop-2-enamide], the negative-log IC50 (pIC50) was 9.05.

Take `Cc1cc(-c2cc3nc(-n4ccc(-c5ccccc5)n4)nc(N4CCOCC4)c3o2)[nH]n1` [Compound 162, 6-(3-methyl-1H-pyrazol-5-yl)-4-morpholino-2-(3-phenylpyrazol-1-yl)furo[3,2-d]pyrimidine]: the pIC50 was 7.75. Then `O=C(NCC1CC1)c1cc2nc(-n3ccc(-c4ccccc4)n3)nc(N3CCOCC3)c2o1` [Compound 166, N-(cyclopropylmethyl)-4-morpholino-2-(3-phenylpyrazol-1-yl)furo[3,2-d]pyrimidine-6-carboxamide], with 6.66. Then `Cc1cccc(-c2cc(Nc3nc(N4CCOCC4)c4oc(C5CCCN(C)C5)cc4n3)[nH]n2)c1` (stereo not drawn) [Compound 36], with 7.43; and `Cc1cccc(-c2cc(Nc3nc(N4CCOCC4)c4oc(-c5ccncc5)cc4n3)[nH]n2)n1` [Compound 20, N-[5-(6-methyl-2-pyridyl)-1H-pyrazol-3-yl]-4-morpholino-6-(4-pyridyl)furo[3,2-d]pyrimidin-2-amine, hydrogen chloride], with 8.05; and `O=C(NC1CC1)c1cc2nc(Nc3cc(-c4ccccc4)[nH]n3)nc(N3CCOCC3)c2o1` [Compound 59], with 8.37.

On to `CN1CCC(NC(=O)c2cc3nc(-n4ccc(-c5ccccc5)n4)nc(N4CCOCC4)c3o2)CC1` [Compound 151, N-(1-methyl-4-piperidyl)-4-morpholino-2-(3-phenylpyrazol-1-yl)furo[3,2-d]pyrimidine-6-carboxamide], for which the negative logarithm of the IC50 (pIC50) is 6.35.

As to `Cc1cccc(-c2cc(Nc3nc(N4CCOCC4)c4occc4n3)[nH]n2)c1` [Compound 8, 4-morpholino-N-[5-(m-tolyl)-1H-pyrazol-3-yl]furo[3,2-d]pyrimidin-2-amine, hydrogen chloride], the pIC50 was 7.23.

Consider `CN(C)CCCCNC(=O)c1cc2nc(-n3cc(-c4ccccc4)cn3)nc(N3CCOCC3)c2o1` [Compound 167], for which the pIC50 was 6.91. On to `Cc1cc(-c2oc3c(N4CCOCC4)nc(-n4ccc(-c5ccccc5)n4)nc3c2C)[nH]n1` [Compound 182, 7-methyl-6-(3-methyl-1H-pyrazol-5-yl)-4-morpholino-2-(3-phenylpyrazol-1-yl)furo[3,2-d]pyrimidine], for which the negative logarithm of the IC50 (pIC50) is 7.07. As to `Cc1cc(-c2cc3nc(-n4ccc(-c5ccccc5)n4)nc(N4CCOCC4)c3o2)sn1` [Compound 211, 6-(3-methylisothiazol-5-yl)-4-morpholino-2-(3-phenylpyrazol-1-yl)furo[3,2-d]pyrimidine], the negative-log IC50 (pIC50) was 7.68. Then `c1cc(-c2cc3nc(Nc4cc(C5CC5)n[nH]4)nc(N4CCOCC4)c3o2)ccn1` [Compound 68, N-(5-cyclopropyl-1H-pyrazol-3-yl)-4-morpholino-6-(pyridin-4-yl)furo[3,2-d]pyrimidin-2-amine, hydrogen chloride], with 6.73.

As for `Cc1cncc(-c2cc(Nc3nc(N4CCOCC4)c4oc(-c5ccncc5)cc4n3)[nH]n2)c1` [Compound 23, N-[5-(5-methyl-3-pyridyl)-1H-pyrazol-3-yl]-4-morpholino-6-(4-pyridyl)furo[3,2-d]pyrimidin-2-amine, hydrogen chloride], the pIC50 is 6.71. Then `CNC(=O)c1cc2nc(Nc3cc(-c4ccccc4)[nH]n3)nc(N3CCOCC3)c2o1` [Compound 138, N-methyl-4-morpholino-2-((5-phenyl-1H-pyrazol-3-yl)amino)furo[3,2-d]pyrimidine-6-carboxamide], with 7.48.
